The results in this text go back to patent US20230115945A1, “AMINOPYRIMIDINE COMPOUNDS” (TYRA BIOSCIENCES, INC., priority 2019, published 2023).

Common to all, as to settings: 11-point 3-fold dilution, qPCR readout
Experiment [1] deals with T1, FGFR1 (Homo sapiens, UniProt P11362).
T1 construct: made in house; host or cells: E. coli host derived from BL21, infected with T7 phage
The experiment in a line: Kinase binding assay (Kd), FGFR1. As to the method: (§1) Kinase-tagged T7 phage strains were prepared in an E. coli host derived from the BL21 strain. E. coli were grown to log-phase and infected with T7 phage and incubated with shaking at 32° C. until lysis. The lysates were centrifuged and filtered to remove cell debris. Streptavidin-coated magnetic beads were treated with biotinylated small molecule ligands for 30 minutes at room temperature to generate affinity resins for kinase assays. The liganded beads were blocked with excess biotin and washed with blocking buffer SeaBlock (Pierce), 1% BSA, 0.05% Tween 20, 1 mM DTT to remove unbound ligand and to reduce non-specific binding. Binding reactions were assembled by combining kinases, liganded affinity beads, and test compounds in 1× binding buffer (20% SeaBlock, 0.17×PBS, 0.05% Tween 20, 6 mM DTT).
(§2) Test compounds were prepared as 111X stocks in 100% DMSO. Kds were determined using an 11-point 3-fold compound dilution series with three DMSO control points. All compounds for Kd measurements are distributed by acoustic transfer (non-contact dispensing) in 100% DMSO. The compounds were then diluted directly into the assays such that the final concentration of DMSO was 0.9%. All reactions performed in polypropylene 384-well plate. Each was a final volume of 0.02 ml. The assay plates were incubated at room temperature with shaking for 1 hour and the affinity beads were washed with wash buffer (lx PBS, 0.05% Tween 20). The beads were then re-suspended in elution buffer (lx PBS, 0.05% Tween 20, 0.5 μM non-biotinylated affinity ligand) and incubated at room temperature with shaking for 30 minutes. The kinase concentration in the eluates was measured by qPCR.
(§3) Binding constants were calculated with a standard dose-response curve using the Hill equation: […]
(§4) The Hill Slope was set to −1. Curves were fitted using a non-linear least square fit with the Levenberg-Marquardt algorithm.

The target of experiment [2] is T2, FGFR2 (Homo sapiens, UniProt P21802).
T2 construct: made in house; host or cells: E. coli host derived from BL21, infected with T7 phage
The experiment in a line: Kinase binding assay (Kd), FGFR2. The procedure: as §1, §2, §3, §4

Experiment [3] concerns the target T3, FGFR3 (Homo sapiens, UniProt P22607).
T3 construct: made in house; host or cells: E. coli host derived from BL21, infected with T7 phage
The experiment in a line: Kinase binding assay (Kd), FGFR3. As to the method:
as §1, §2, §3, §4

The target in experiment [4] is T4, FGFR3 (V555M) (Homo sapiens, UniProt P22607, V555M).
T4 construct: made in house; host or cells: E. coli host derived from BL21, infected with T7 phage
The experiment in a line: Kinase binding assay (Kd), FGFR3 (V555M). As to the method: as §1, §2, §3, §4

The target in experiment [5] is T5, FGFR4 (Homo sapiens, UniProt P22455).
T5 construct: made in house; host or cells: E. coli host derived from BL21, infected with T7 phage
The experiment in a line: Kinase binding assay (Kd), FGFR4. The procedure: as §1, §2, §3, §4

T2 sequence (P21802 22-821): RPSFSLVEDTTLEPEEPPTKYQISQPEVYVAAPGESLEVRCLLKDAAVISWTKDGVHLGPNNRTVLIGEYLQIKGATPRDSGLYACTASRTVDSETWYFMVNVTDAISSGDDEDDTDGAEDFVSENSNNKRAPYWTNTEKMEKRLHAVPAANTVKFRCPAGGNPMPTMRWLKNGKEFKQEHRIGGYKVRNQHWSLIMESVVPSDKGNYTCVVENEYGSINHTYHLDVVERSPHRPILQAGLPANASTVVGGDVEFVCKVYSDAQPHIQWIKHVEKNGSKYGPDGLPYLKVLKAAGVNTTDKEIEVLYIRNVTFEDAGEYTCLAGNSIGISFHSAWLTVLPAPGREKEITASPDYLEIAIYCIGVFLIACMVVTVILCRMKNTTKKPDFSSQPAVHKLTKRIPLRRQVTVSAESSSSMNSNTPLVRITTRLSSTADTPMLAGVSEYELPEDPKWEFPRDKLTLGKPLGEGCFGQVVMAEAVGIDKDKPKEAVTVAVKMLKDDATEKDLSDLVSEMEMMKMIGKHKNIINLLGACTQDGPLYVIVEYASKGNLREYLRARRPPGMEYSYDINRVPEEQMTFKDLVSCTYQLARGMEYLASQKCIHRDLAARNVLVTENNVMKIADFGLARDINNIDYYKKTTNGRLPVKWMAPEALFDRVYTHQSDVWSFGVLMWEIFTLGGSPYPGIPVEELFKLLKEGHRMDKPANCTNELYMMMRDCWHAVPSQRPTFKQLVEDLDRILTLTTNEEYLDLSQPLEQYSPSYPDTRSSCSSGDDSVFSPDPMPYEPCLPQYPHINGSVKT
T5 sequence (P22455 22-802): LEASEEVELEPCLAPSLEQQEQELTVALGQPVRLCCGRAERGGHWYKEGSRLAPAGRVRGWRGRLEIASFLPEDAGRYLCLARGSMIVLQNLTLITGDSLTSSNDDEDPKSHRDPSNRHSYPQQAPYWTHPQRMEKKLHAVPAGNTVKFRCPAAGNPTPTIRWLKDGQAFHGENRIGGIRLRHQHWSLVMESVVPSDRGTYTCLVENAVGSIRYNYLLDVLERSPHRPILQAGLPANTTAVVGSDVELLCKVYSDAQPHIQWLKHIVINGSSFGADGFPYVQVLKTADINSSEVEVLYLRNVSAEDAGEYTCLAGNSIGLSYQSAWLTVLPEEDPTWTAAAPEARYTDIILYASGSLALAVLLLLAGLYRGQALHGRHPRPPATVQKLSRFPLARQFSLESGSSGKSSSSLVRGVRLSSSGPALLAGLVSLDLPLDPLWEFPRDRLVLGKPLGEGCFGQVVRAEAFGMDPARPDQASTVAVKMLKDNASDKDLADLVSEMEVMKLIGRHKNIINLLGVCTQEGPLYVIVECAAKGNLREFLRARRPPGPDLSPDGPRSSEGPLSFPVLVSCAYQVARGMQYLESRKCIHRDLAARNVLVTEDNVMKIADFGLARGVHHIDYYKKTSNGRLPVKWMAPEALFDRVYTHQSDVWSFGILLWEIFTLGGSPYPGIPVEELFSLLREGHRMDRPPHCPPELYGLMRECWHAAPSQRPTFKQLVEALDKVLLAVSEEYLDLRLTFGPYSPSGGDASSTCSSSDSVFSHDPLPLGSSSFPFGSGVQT
T3 sequence (P22607 23-806): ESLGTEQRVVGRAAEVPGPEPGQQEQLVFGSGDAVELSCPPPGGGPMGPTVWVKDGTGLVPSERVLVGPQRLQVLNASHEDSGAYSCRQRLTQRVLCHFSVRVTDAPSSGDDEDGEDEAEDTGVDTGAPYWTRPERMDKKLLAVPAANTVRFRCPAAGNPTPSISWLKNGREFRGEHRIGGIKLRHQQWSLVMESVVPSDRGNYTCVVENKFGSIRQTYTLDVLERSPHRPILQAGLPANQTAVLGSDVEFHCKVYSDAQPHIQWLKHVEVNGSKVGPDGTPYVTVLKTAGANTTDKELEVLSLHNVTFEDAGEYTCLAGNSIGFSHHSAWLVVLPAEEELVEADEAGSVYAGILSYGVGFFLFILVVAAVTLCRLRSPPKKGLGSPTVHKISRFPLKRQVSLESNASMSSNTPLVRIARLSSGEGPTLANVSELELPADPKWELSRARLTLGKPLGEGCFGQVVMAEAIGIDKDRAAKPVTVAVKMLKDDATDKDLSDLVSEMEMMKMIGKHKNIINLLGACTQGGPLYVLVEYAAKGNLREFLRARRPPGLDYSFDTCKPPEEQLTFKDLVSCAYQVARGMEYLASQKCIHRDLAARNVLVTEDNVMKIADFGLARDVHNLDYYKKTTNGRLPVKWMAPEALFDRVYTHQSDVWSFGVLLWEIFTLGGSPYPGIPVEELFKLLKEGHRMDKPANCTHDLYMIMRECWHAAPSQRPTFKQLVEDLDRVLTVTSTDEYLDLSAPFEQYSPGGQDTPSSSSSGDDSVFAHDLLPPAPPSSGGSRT
T1 sequence (P11362 22-822): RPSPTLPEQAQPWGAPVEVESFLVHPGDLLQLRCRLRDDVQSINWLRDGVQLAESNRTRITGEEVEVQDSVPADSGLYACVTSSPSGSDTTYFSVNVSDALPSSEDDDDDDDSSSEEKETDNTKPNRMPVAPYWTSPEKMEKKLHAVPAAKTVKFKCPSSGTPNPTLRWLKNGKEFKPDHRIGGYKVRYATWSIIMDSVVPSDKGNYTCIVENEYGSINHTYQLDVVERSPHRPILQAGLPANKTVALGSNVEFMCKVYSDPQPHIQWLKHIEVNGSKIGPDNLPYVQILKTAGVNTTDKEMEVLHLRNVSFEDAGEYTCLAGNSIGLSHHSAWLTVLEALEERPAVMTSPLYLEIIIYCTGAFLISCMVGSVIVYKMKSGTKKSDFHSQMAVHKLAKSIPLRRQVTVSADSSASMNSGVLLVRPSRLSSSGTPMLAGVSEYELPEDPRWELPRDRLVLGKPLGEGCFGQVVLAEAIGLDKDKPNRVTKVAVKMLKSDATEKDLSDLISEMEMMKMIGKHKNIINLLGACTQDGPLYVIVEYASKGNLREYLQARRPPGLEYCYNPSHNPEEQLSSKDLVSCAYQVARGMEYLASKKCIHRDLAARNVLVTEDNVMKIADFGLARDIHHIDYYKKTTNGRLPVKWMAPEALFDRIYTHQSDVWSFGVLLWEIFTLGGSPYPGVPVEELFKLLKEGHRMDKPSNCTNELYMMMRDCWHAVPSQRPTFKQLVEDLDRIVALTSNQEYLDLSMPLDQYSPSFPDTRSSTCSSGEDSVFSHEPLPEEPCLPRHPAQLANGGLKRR
T4 sequence (P22607 23-806 V555M): as the sequence (P22607 23-806) above, with V533M counted along it

Usually Kd stands for the concentration at which binding is half-saturated. Consider `C=CC(=O)Nc1ccc2c(ccn2-c2nc(Nc3ccc(S(C)(=N)=O)cc3OC)ncc2Cl)c1` (single isomer, unassigned) [Example 88, N-[1-[5-Chloro-2-[2-methoxy-4-(methylsulfonimidoyl)-anilino]-pyrimidin-4-yl]indol-5-yl]prop-2-enamide], for which the Kd in experiment [1] amounted to 20000 nM; in experiment [2], 26000 nM; in experiment [3], 8800 nM; in experiment [4] it was 840 nM.

Consider `COc1cc(N=S(C)(C)=O)ccc1Nc1ncc(Cl)c(-c2c[nH]c3ccccc23)n1` [Example 1, 5-chloro-N-[4-[[dimethyl(oxo)-λ^6-sulfanylidene]amino]-2-methoxy-phenyl]-4-(1H-indol-3-yl)pyrimidin-2-amine], for which the Kd in experiment [1] came out at 140 nM; in experiment [2], 370 nM; in experiment [3], 170 nM; in experiment [4], 15 nM; in experiment [5], 130 nM.

Turning to `CCOc1cc(N=S(C)(C)=O)ccc1Nc1ncc(Cl)c(-c2c[nH]c3ccccc23)n1` [Example 2, 5-Chloro-N-[4-[[dimethyl(oxo)-λ^6-sulfanylidene]amino]-2-ethoxy-phenyl]-4-(1H-indol-3-yl)pyrimidin-2-amine], the Kd in experiment [1] turned out to be 480 nM; in experiment [2], 1900 nM; in experiment [3], 430 nM; in experiment [4] it was 53 nM; in experiment [5] it was 39 nM.

For the compound `CC(C)COc1cc(N=S(C)(C)=O)ccc1Nc1ncc(Cl)c(-c2c[nH]c3ccccc23)n1` [Example 4, 5-chloro-N-[4-[[dimethyl(oxo)-λ^6-sulfanylidene]amino]-2-isobutoxy-phenyl]-4-(1H-indol-3-yl)pyrimidin-2-amine], the Kd in experiment [1] came to 21000 nM; in experiment [4] it was 4100 nM; in experiment [5], 210 nM.

Regarding `COc1c(N=S(C)(C)=O)cccc1Nc1ncc(Cl)c(-c2c[nH]c3ccccc23)n1` [Example 5, 5-chloro-N-[3-[[dimethyl(oxo)-λ^6-sulfanylidene]amino]-2-methoxy-phenyl]-4-(1H-indol-3-yl)pyrimidin-2-amine], the Kd in experiment [1] worked out at 3300 nM; in experiment [2] it was 14000 nM; in experiment [3], 4300 nM; in experiment [4], 420 nM; in experiment [5], 6200 nM.

As to `COc1ccc(N=S(C)(C)=O)cc1Nc1ncc(Cl)c(-c2c[nH]c3ccccc23)n1` [Example 6, 5-chloro-N-[5-[[dimethyl(oxo)-λ^6-sulfanylidene]amino]-2-methoxy-phenyl]-4-(1H-indol-3-yl)pyrimidin-2-amine], the Kd stood at 390 nM in experiment [1]; 1700 nM in experiment [2]; 1100 nM in experiment [3]; 90 nM in experiment [4]; 2000 nM in experiment [5].

For `CS(C)(=O)=Nc1cccc(Nc2ncc(Cl)c(-c3c[nH]c4ccccc34)n2)c1` [Example 7, 5-chloro-N-[3-[[dimethyl(oxo)-λ^6-sulfanylidene]amino]phenyl]-4-(1H-indol-3-yl)pyrimidin-2-amine], the Kd is 21 nM in experiment [1]; 140 nM in experiment [2]; 40 nM in experiment [3]; 4 nM in experiment [4]; 280 nM in experiment [5].

Take `CS(C)(=O)=Nc1ccc(Nc2ncc(Cl)c(-c3c[nH]c4ccccc34)n2)cc1` [Example 8, 5-chloro-N-[4-[[dimethyl(oxo)-λ^6-sulfanylidene]amino]phenyl]-4-(1H-indol-3-yl)pyrimidin-2-amine]: the Kd in experiment [1] was determined as 19 nM; in experiment [2], 24 nM; in experiment [3], 29 nM; in experiment [4] it was 4 nM; in experiment [5], 180 nM.

As to `CCOc1cc(N=S(C)(C)=O)ccc1Nc1ncc(C)c(-c2c[nH]c3c(C)cccc23)n1` [Example 9, N-[4-[[dimethyl(oxo)-λ^6-sulfanylidene]amino]-2-ethoxy-phenyl]-5-methyl-4-(7-methyl-1H-indol-3-yl)pyrimidin-2-amine], the Kd was 350 nM in experiment [1]; 3300 nM in experiment [2]; 370 nM in experiment [3]; 57 nM in experiment [4]; 57 nM in experiment [5].

In the case of `CS(C)(=O)=Nc1ccc(Nc2nccc(-c3c[nH]c4ccccc34)n2)cc1` [Example 10, N-[4-[[dimethyl(oxo)-λ^6-sulfanylidene]amino]phenyl]-4-(1H-indol-3-yl)pyrimidin-2-amine], the Kd in experiment [1] is 350 nM; in experiment [2], 3300 nM; in experiment [3], 370 nM; in experiment [4], 57 nM; in experiment [5] it was 57 nM.

On to `CS(C)(=O)=Nc1ccc(Nc2cc(-c3c[nH]c4ccccc34)ncn2)cc1` [Example 12, N-[4-[[dimethyl(oxo)-λ^6-sulfanylidene]amino]phenyl]-6-(1H-indol-3-yl)pyrimidin-4-amine], for which the Kd amounted to 350 nM in experiment [1]; 3300 nM in experiment [2]; 370 nM in experiment [3]; 57 nM in experiment [4]; 57 nM in experiment [5].

`CS(C)(=O)=Nc1ccc(Nc2nccc(-n3ccc4ccccc43)n2)cc1` [Example 13, N-[4-[[dimethyl(oxo)-λ^6-sulfanylidene]amino]phenyl]-4-indol-1-yl-pyrimidin-2-amine]: the Kd in experiment [1] is 350 nM; in experiment [2], 3300 nM; in experiment [3], 370 nM; in experiment [4], 57 nM; in experiment [5], 57 nM.

Turning to `Cc1cnc(Nc2ccc(N=S(C)(C)=O)cc2)nc1-n1ccc2ccccc21` [Example 14, N-[4-[[dimethyl(oxo)-λ^6-sulfanylidene]amino]phenyl]-4-indol-1-yl-5-methyl-pyrimidin-2-amine], the Kd was 190 nM in experiment [1]; 110 nM in experiment [2]; 170 nM in experiment [3]; 9 nM in experiment [4]; 1500 nM in experiment [5].

Regarding `CS(C)(=O)=Nc1ccc(Nc2cc(-n3ccc4ccccc43)ncn2)cc1` [Example 15, N-[4-[[dimethyl(oxo)-λ^6-sulfanylidene]amino]phenyl]-6-indol-1-yl-pyrimidin-4-amine], the Kd in experiment [1] is 29000 nM; in experiment [2], 14000 nM; in experiment [3], 18000 nM; in experiment [4], 3700 nM.

Regarding `CN1CCS(=O)(=Nc2ccc(Nc3nccc(-n4ccc5ccccc54)n3)cc2)CC1` [Example 16, 4-Indol-1-yl-N-[4-[(4-methyl-1-oxo-1,4-thiazinan-1-ylidene)amino]phenyl]-pyrimidin-2-amine], the Kd in experiment [1] was 2200 nM; in experiment [2], 600 nM; in experiment [3] it was 570 nM; in experiment [4], 140 nM; in experiment [5] it was 9500 nM.

Consider `CS(C)(=O)=Nc1ccc(Nc2nccc(-n3ccc4ccccc43)n2)c(N)c1` [Example 18, 4-[[dimethyl(oxo)-λ^6-sulfanylidene]amino]-N1-(4-indol-1-ylpyrimidin-2-yl)benzene-1,2-diamine], for which the values for the Kd in experiment [2], in experiment [3] and in experiment [4] were 21000 nM, 20000 nM and 12000 nM, respectively.

Turning to `C=CC(=O)Nc1cc(N=S(C)(C)=O)ccc1Nc1nccc(-n2ccc3ccccc32)n1` [Example 19, N-[5-[[dimethyl(oxo)-λ^6-sulfanylidene]amino]-2-[(4-indol-1-ylpyrimidin-2-yl)amino]phenyl]prop-2-enamide], in experiment [4], the Kd was found to be 3000 nM.

For the compound `C=CC(=O)Nc1cc(N=S(C)(C)=O)ccc1Nc1ncc(C)c(-c2c[nH]c3ccccc23)n1` [Example 20, N-[5-[[Dimethyl(oxo)-λ^6-sulfanylidene]amino]-2-[[4-(1H-indol-3-yl)-5-methyl-pyrimidin-2-yl]amino]phenyl]prop-2-enamide], the Kd in experiment [1] was 37 nM; in experiment [2], 51 nM; in experiment [3], 27 nM; in experiment [4] it was 4 nM; in experiment [5], 120 nM.

For `CC(=O)c1cn(-c2nc(Nc3ccc(N=S(C)(C)=O)cc3)ncc2C)c2ccccc12` [Example 21, 1-[1-[2-[4-[[Dimethyl(oxo)-λ^6-sulfanylidene]amino]anilino]-5-methyl-pyrimidin-4-yl]indol-3-yl]ethanone], the Kd in experiment [3] worked out at 27000 nM.

As to `Cc1ccc2c(-c3nc(Nc4ccc(N=S(C)(C)=O)cc4)ncc3C)c[nH]c2c1` [Example 28, N-[4-[[dimethyl(oxo)-λ^6-sulfanylidene]amino]phenyl]-5-methyl-4-(6-methyl-1H-indol-3-yl)pyrimidin-2-amine], the Kd in experiment [1] worked out at 27 nM; in experiment [2], 63 nM; in experiment [3], 44 nM; in experiment [4], 4 nM; in experiment [5], 290 nM.
